Read-outs that look alike come from different tables or passages of the source.
Legend:
Sortase A = conditions: 10 μM SrtA, 4 μM inhibitor
Experimental: The native enzyme, enzyme-inhibitor complex and appropriate controls were added to the wells of a 48-well plate (total reaction volume 10 μl/well). The reactions contained SYPRO orange (Invitrogen, Carlsbad, Calif.) purchased as a 5,000× stock and used at a 2× final concentration.

[1] = tested on: S. pseudintermedius isolates; test: flow cytometry of cell wall-associated Protein A on bacteria grown with inhibitor (indirect SrtA inhibition); format: cell-based, Staphylococcus pseudintermedius; conditions: compared to control without inhibitor
Experimental: FIG. 4: […] bacterial isolates 08-3228, 08-1661, NA12, NA16 and NA45 were grown in the presence of inhibitor 1847 until exponential log phase. S. pseudintermedius recombinant SrtA inhibition was measured indirectly by determining the density of cell wall associated Protein A (one of the LPXTG proteins targeted by SrtA) using flow cytometry. Protein A was detected with FITC conjugated chicken anti-protein A (Gallus immunotech, Cary, N.C.). The values represent average from three independent experiments with the standard deviations shown at the top of each bar.
Inhibition of SrtA in bacterial cells was measured indirectly by measuring the decrease in the amount of Protein A on the bacterial surface using flow cytometry. Five representative S. pseudintermedius isolates were tested. […] Isolate NA45 was not affected by compound 1847.

[2] = tested on: S. pseudintermedius recombinant SrtA; test: in vitro FRET-based functional assay of recombinant SrtA; format: biochemical, Staphylococcus pseudintermedius; conditions: compared to buffer controls, averages from three independent experiments
Experimental: Compounds predicted to bind to the active site were identified. Initially, from the 200 highest ranked compounds, twenty were selected. […] The assay to determine the functional activity of recombinant SrtA and its inhibition was performed in 96-well black microtiter plates with clear bottom (Corning, Fisher Scientific, Hampton, N.H.) in a final reaction volume of 200 μl. Fluorescent-quenched bacterial sortase substrate III, Abz/DNP (Abz-LPETG-K(Dnp)-NH2 (GenScript Inc., Piscataway, N.J.) dissolved in isopropanol was used for Km determination. Varying concentrations of the substrate (2.5 μM-200 μM) were incubated at 25° C. with 1 μM of SrtA diluted in assay buffer (50 mM Tris-HCl, 150 mM NaCl, 5 mM CaCl2, and 0.1% Triton X-100, pH 7.5). The increase in fluorescence was measured in a kinetic assay for 20 min at 2 min intervals using a Synergy HTX multimode reader (BioTek, Winooski, Vt.) at wavelengths 320 excitation/420 emission. The initial velocity V0 was determined from the linear portion of the curve and the Km was determined using the Michaelis-Menten equation where V=Vmax[S]/([S]+Km). To measure the effect of inhibitors recombinant SrtA was pre-incubated with varying amounts of the inhibitor at […] and subjected to the same FRET assay.

O=S(=O)(O)c1ccc(N=Nc2ccccc2)cc1 [Compound 1847]
melting temperature of 1847-stabilized Sortase A (Sortase A; Srt A in His-Tag elution buffer): 86.56 °C | melting temperature of 1847-stabilized Sortase A (Sortase A; Srt A in PBS): 86.81 °C | reduction in the density of cell wall-associated Protein A ([1]; isolate 06-3228): 38.7% | reduction in the density of cell wall-associated Protein A ([1]; isolate 08-1661): 74.3% | reduction in the density of cell wall-associated Protein A ([1]; isolate NA12): 42.8% | reduction in the density of cell wall-associated Protein A ([1]; isolate NA16): 89.4% | reduction in the density of cell wall-associated Protein A ([1]; isolate NA45): not affected | inhibition of SrtA [2]: 50-80%

C[N+](C)(C)CCSS(C)(=O)=O.[Br-] [MTSET, reference compound]
inhibition of SrtA [2]: 57.5%

N#Cc1ccc(NS(=O)(=O)Cc2ccccc2)cc1 [STK022091]
inhibition of SrtA [2]: did not have any detectable inhibitory effect | inhibition of SrtA ([2]; listed as SKT022091): did not have inhibitory effect

COc1ccc(N2CCN(S(=O)(=O)Cc3ccc(F)cc3)CC2)cc1 [STL223442]
inhibition of SrtA [2]: 13.75%

Reference: patent US10676538B2, “Inhibitors of Staphylococcus pseudintermedius sortase” (priority 2017, dated 2020)
